Structures can show the parent of a compound that is named as a salt.
Test system: not given
Experiment: not given
Conditions: not given

Question: With `CCCN1C(=O)N2C[C@H](C(C)C)N=C2c2[nH]c(C3CCCC3)nc21.Cl` as the compound, how does the melting point read?
Answer: The melting point was 109 to 112 °C.

Question: With `CCCCC1CN2C(=O)N(CCC)c3nc(C4CCCC4)[nH]c3C2=N1.Cl` (centres unmarked) as the compound, how does the melting point read?
Answer: The melting point was 146 to 148 °C.

Question: With `CCCN1C(=O)N2CC(Cc3ccc([N+](=O)[O-])cc3)N=C2c2[nH]c(C3CCCC3)nc21.Cl` (centres unmarked) as the compound, how does the melting point read?
Answer: The melting point was 215 to 217 °C.

Question: With `CCCN1C(=O)N2C[C@@H](Cc3ccccc3)N=C2c2c1ncn2Cc1ccccc1.Cl` as the compound, how does the melting point read?
Answer: The melting point was 198 to 200 °C.

Question: For `CCCc1nc2c([nH]1)C1=NC(Cc3ccc(Cl)cc3)CN1C(=O)N2CCC.Cl` (centres unmarked), which melting point is on record?
Answer: Its melting point is 191 to 192 °C.

Question: For `CCCN1C(=O)N2CC(Cc3ccc(Cl)cc3)N=C2c2[nH]c(C3CCC3)nc21.Cl` (centres unmarked), which melting point is on record?
Answer: Its melting point is 214 to 215 °C.

Question: Which melting point does the source give for `CCCc1nc2c([nH]1)C1=NC(Cc3ccc(F)cc3)CN1C(=O)N2CCC.Cl` (centres unmarked) here?
Answer: The melting point was 199 to 200 °C.

Question: For `CCCCc1nc2c([nH]1)C1=NC(Cc3ccc(F)cc3)CN1C(=O)N2CCC.Cl` (centres unmarked), which melting point is on record?
Answer: Its melting point is 193 to 196 °C.

Question: For `CCCc1nc2c([nH]1)C1=NC(Cc3cccc(F)c3)CN1C(=O)N2CCC.Cl` (centres unmarked), which melting point is on record?
Answer: The melting point was 139 to 140 °C.

Question: With `CCCN1C(=O)N2CC(Cc3cccc(F)c3)N=C2c2[nH]c(C3CCC3)nc21.Cl` (centres unmarked) as the compound, how does the melting point read?
Answer: Its melting point is 164 to 165 °C.

Question: With `CCCN1C(=O)N2CC(Cc3cccc(F)c3)N=C2c2[nH]c(CC(C)C)nc21` (centres unmarked) as the compound, how does the melting point read?
Answer: Its melting point is 186 to 187 °C.

Question: Which melting point does the source give for `CCCN1C(=O)N2C[C@@H](C)N=C2c2[nH]c(C3CCCC3)nc21.Cl` here?
Answer: The melting point was 218 to 219 °C.

Question: For `CCCN1C(=O)N2CC(Cc3ccccc3F)N=C2c2[nH]c(CC(C)C)nc21` (centres unmarked), which melting point is on record?
Answer: Its melting point is 159 to 160 °C.

Question: For `CCCN1C(=O)N2C[C@H](C(C)C)N=C2c2[nH]c(C(C)C)nc21.Cl`, which melting point is on record?
Answer: Its melting point is 156 to 157 °C.

Question: For `CCCN1C(=O)N2C[C@@H](C(C)C)N=C2c2[nH]c(C3CCCC3)nc21.Cl`, which melting point is on record?
Answer: Its melting point is 116 to 118 °C.

Question: Which melting point does the source give for `CCCN1C(=O)N2CC(Cc3ccc(F)cc3)N=C2c2[nH]c(C3CCCC3)nc21` (centres unmarked) (as salt: hydrochloride) [Compound 18, 2-cyclopentyl-8-(4-fluorobenzyl)-7,8-dihydro-4-propyl-1H-imidazo[2,1-i]purin-5(4H)-one hydrochloride] here?
Answer: Its melting point is 226 to 228 °C.

Question: With `CCCN1C(=O)N2CC(Cc3ccc(Cl)cc3)N=C2c2[nH]c(C3CCCC3)nc21` (centres unmarked) (as salt: hydrochloride) [Compound 20, 8-(4-chlorobenzyl)-2-cyclopentyl-7,8-dihydro-4-propyl-1H-imidazo[2,1-i]purin-5(4H)-one hydrochloride] as the compound, how does the melting point read?
Answer: Its melting point is 222 to 224 °C.

Question: Which melting point does the source give for `CCCN1C(=O)N2CC(Cc3ccc(Br)cc3)N=C2c2[nH]c(C3CCCC3)nc21` (centres unmarked) (as salt: hydrochloride) [Compound 23, 8-(4-bromobenzyl)-2-cyclopentyl-7,8-dihydro-4-propyl-1H-imidazo[2,1-i]purin-5(4H)-one hydrochloride] here?
Answer: Its melting point is 184 to 186 °C.

Question: With `CCCN1C(=O)N2CC(CCc3ccccc3)N=C2c2[nH]c(C3CCCC3)nc21` (centres unmarked) (as salt: hydrochloride) [Compound 31, 2-cyclopentyl-7,8-dihydro-8-phenethyl-4-propyl-1H-imidazo[2,1-i]purin-5(4H)-one hydrochloride] as the compound, how does the melting point read?
Answer: Its melting point is 171 to 173 °C.

Question: For `CCCc1nc2c([nH]1)C1=N[C@H](Cc3ccccc3)CN1C(=O)N2CCC` (as salt: hydrochloride) [Compound 35, (R)-8-benzyl-7,8-dihydro-2,4-dipropyl-1H-imidazo[2,1-i]purin-5(4H)-one hydrochloride], which melting point is on record?
Answer: The melting point was 195 to 197 °C.

Question: Which melting point does the source give for `CCCN1C(=O)N2C[C@@H](Cc3ccccc3)N=C2c2[nH]c(C3CCC3)nc21` (as salt: hydrochloride) [Compound 37, (R)-8-benzyl-2-cyclobutyl-7,8-dihydro-4-propyl-1H-imidazo[2,1-i]purin-5(4H)-one hydrochloride] here?
Answer: Its melting point is 214 to 216 °C.

Question: With `CCCN1C(=O)N2C[C@@H](Cc3ccccc3)N=C2c2[nH]c(C(C)(C)C)nc21` (as salt: hydrochloride) [Compound 43, (R)-8-benzyl-2-tert-butyl-7,8-dihydro-4-propyl-1H-imidazo[2,1-i]purin-5(4H)-one hydrochloride] as the compound, how does the melting point read?
Answer: The melting point was 220 to 222 °C.

Question: With `CCCN1C(=O)N2CC(Cc3ccc(F)cc3)N=C2c2[nH]c(C3CCCCC3)nc21` (centres unmarked) (as salt: hydrochloride) [Compound 50, 2-cyclohexyl-8-(4-fluorobenzyl)-7,8-dihydro-4-propyl-1H-imidazo[2,1-i]purin-5(4H)-one hydrochloride] as the compound, how does the melting point read?
Answer: Its melting point is 237 to 239 °C.

Question: With `CCCN1C(=O)N2CC(Cc3cc(Cl)ccc3Cl)N=C2c2[nH]c(C3CCCC3)nc21` (centres unmarked) (as salt: hydrochloride) [Compound 65, 2-cyclopentyl-8-(2,5-dichlorobenzyl)-7,8-dihydro-4-propyl-1H-imidazo[2,1-i]purin-5(4H)-one hydrochloride] as the compound, how does the melting point read?
Answer: Its melting point is 172 to 173 °C.

Question: With `CCCN1C(=O)N2C[C@H](C(C)(C)C)N=C2c2[nH]c(-c3ccoc3)nc21` [Compound 67, (S)-8-tert-butyl-2-(3-furyl)-7,8-dihydro-4-propyl-1H-imidazo[2,1-i]purin-5(4H)-one] as the compound, how does the melting point read?
Answer: Its melting point is 204 to 206 °C.

Test system: MIN6 cell
Experiment: Insulin secretion enhancing action in cultured β-cell (MIN6)
Type: cell-based
Conditions: in the presence of 14.5 mM glucose; drug concentration 0.1 μM
Description: Culture of the MIN6 cells and insulin secretion test utilizing the MIN6 cells were performed basically according to the methods described in literature (Ishihara et al., Diabetologia, vol. 36, pp.1139-1145, 1993). The effect of a compound on the insulin secretion in the presence of 14.5 mM glucose was determined by measuring insulin amounts in cell culture supernatants collected as follows. MIN6 cells cultured on a 24-well plate were washed twice by using 1 ml of Buffer A (119 mM sodium chloride, 4.74 mM potassium chloride, 2.54 mM calcium chloride, 1.19 mM magnesium sulfate, 1.19 mM potassium dihydrogenphosphate, 10 mM 2-[4-(2-hydroxyethyl)-1-piperazinyl]ethanesulfonic acid, 0.1% bovine serum albumin, pH 7.3) containing 2 mM glucose, and then were incubated in 1 ml of Buffer A containing 2 mM glucose at 37° C. for 45 minutes. After the incubation, the culture supernatant was changed to Buffer A (0.9 ml) containing a test compound at various concentrations and 2 mM glucose, and the cells were further incubated at 37° C. for 15 minutes. The MIN6 cells were stimulated with glucose by the addition of Buffer A (0.1 ml) containing 127 mM glucose to the culture (final glucose concentration: 14.5 mM). After the stimulation, the cells were further incubated at 37° C. for 45 minutes, and then the culture supernatant was collected.
Separately, the effect of a compound on the insulin secretion in the presence of 5 mM glucose was determined by measuring insulin amounts in cell culture supernatants collected as follows. MIN6 cells cultured on a 24-well plate were washed twice by using 1 ml of Buffer A containing 5 mM glucose, and then the culture supernatant was changed to Buffer A (0.9 ml) containing a test compound at various concentrations and 5 mM glucose. Then, the cells were incubated at 37° C. for 45 minutes (final glucose concentration: 5 mM), and the culture supernatant was collected.
After the culture supernatant was diluted with a phosphate buffer containing 1% bovine serum albumin, 0.1% Tween 20, 0.12% disodium ethylenediaminetetraacetate and 0.1% sodium azide, antibody-reactive insulin secreted in the culture supernatant was quantified by enzyme immunoassay or radio immunoassay. […] The results are indicated as averages (avg) for 3 to 4 samples with standard error values (se).

Question: For `COc1ccc(Cl)cc1C(=O)NCCc1ccc(S(=O)(=O)NC(=O)NC2CCCCC2)cc1` [Glibenclamide, reference compound], which “Amount of secreted insulin (ng/ml) avg” value is on record?
Answer: Its value is 177.8 ng/mL.

Same assay, conditions: in the presence of 14.5 mM glucose; drug concentration 1.0 μM

Question: Which “Amount of secreted insulin (ng/ml) avg” value does the source give for `CC(C)[C@H]1CC[C@H](C(=O)N[C@H](Cc2ccccc2)C(=O)O)CC1` [AY4166, AY-4166, reference compound] here?
Answer: The value was 195.1 ng/mL.

Question: With `CCCN1C(=O)N2CC(Cc3ccc(F)cc3)N=C2c2[nH]c(C3CCCC3)nc21` (centres unmarked) [Compound 18, 2-cyclopentyl-8-(4-fluorobenzyl)-7,8-dihydro-4-propyl-1H-imidazo[2,1-i]purin-5(4H)-one hydrochloride] as the compound, how does the “Amount of secreted insulin (ng/ml) avg” value read?
Answer: Its value is 181.9 ng/mL.

Question: Which “Amount of secreted insulin (ng/ml) avg” value does the source give for `CCCN1C(=O)N2CC(Cc3ccc(Cl)cc3)N=C2c2[nH]c(C3CCCC3)nc21` (centres unmarked) [Compound 20, 8-(4-chlorobenzyl)-2-cyclopentyl-7,8-dihydro-4-propyl-1H-imidazo[2,1-i]purin-5(4H)-one hydrochloride] here?
Answer: The value was 235.9 ng/mL.

Question: Which “Amount of secreted insulin (ng/ml) avg” value does the source give for `CCCN1C(=O)N2C[C@@H](Cc3ccccc3)N=C2c2[nH]c(C3CCC3)nc21` [Compound 37, (R)-8-benzyl-2-cyclobutyl-7,8-dihydro-4-propyl-1H-imidazo[2,1-i]purin-5(4H)-one hydrochloride] here?
Answer: Its value is 202.8 ng/mL.

Question: Which “Amount of secreted insulin (ng/ml) avg” value does the source give for `CCCN1C(=O)N2C[C@@H](Cc3ccccc3)N=C2c2[nH]c(C(C)(C)C)nc21` [Compound 43, (R)-8-benzyl-2-tert-butyl-7,8-dihydro-4-propyl-1H-imidazo[2,1-i]purin-5(4H)-one hydrochloride] here?
Answer: The value was 199.1 ng/mL.

Question: Which “Amount of secreted insulin (ng/ml) avg” value does the source give for `CCCN1C(=O)N2CC(Cc3ccc(F)cc3)N=C2c2[nH]c(C3CCCCC3)nc21` (centres unmarked) [Compound 50, 2-cyclohexyl-8-(4-fluorobenzyl)-7,8-dihydro-4-propyl-1H-imidazo[2,1-i]purin-5(4H)-one hydrochloride] here?
Answer: Its value is 209.5 ng/mL.

Question: With `CCCN1C(=O)N2CC(Cc3cc(Cl)ccc3Cl)N=C2c2[nH]c(C3CCCC3)nc21` (centres unmarked) [Compound 65, 2-cyclopentyl-8-(2,5-dichlorobenzyl)-7,8-dihydro-4-propyl-1H-imidazo[2,1-i]purin-5(4H)-one hydrochloride] as the compound, how does the “Amount of secreted insulin (ng/ml) avg” value read?
Answer: Its value is 207.8 ng/mL.

Same assay, conditions: low glucose concentration (5 mM); controls for comparison

Question: For `CC(C)[C@H]1CC[C@H](C(=O)N[C@H](Cc2ccccc2)C(=O)O)CC1` [AY4166, AY-4166, reference compound], which “insulin secretion enhancing action at low glucose” value is on record?
Answer: Its value is “showed marked secretion enhancing action”.

Question: With `COc1ccc(Cl)cc1C(=O)NCCc1ccc(S(=O)(=O)NC(=O)NC2CCCCC2)cc1` [Glibenclamide, reference compound] as the compound, how does the “insulin secretion enhancing action at low glucose” value read?
Answer: Its value is “showed marked secretion enhancing action”.

Source: US6489331B1, “Remedies for diabetes” (Kyowa Hakko Kogyo Co., Ltd., priority 1998, dated 2002)
